Experimental data as given in US9850205B2, “Stable apremilast crystalline form II free of solvate and method of making the same” (UTOPHARM (SHANGHAI) CO., LTD, priority 2015, dated 2017).

Tests used:
[1] = Influence factors (stability) experiments of Form I, Form II and Form B; format: physicochemical
From the text: 2. Influence factors experiments of Form I, Form II and Form B:
In addition, the same batch of raw materials was crystallized in acetone/ethyl alcohol to produce Form B and crystallized in acetone/water to produce Form I and Form II, then compare the appearance and color of the products.

[2] = In vivo pharmacokinetic comparison study in SD rats (gavage, LC-MS/MS plasma concentration); settings: for AUC(0-t) / Cmax / Tmax: SD (Sprague-Dawley), rat, plasma, po, gavage 10 mg/kg suspension; for AUC(0-t): read-out: area under the curve AUC0-t; for Cmax: read-out: peak concentrations Cmax; for Tmax: 10 mg/kg
Protocol: Twelve SD rats weight 200-220 g with half males and half females were divided randomly into 2 groups (named as group A and group B).
According to the administration route and dosage amounts provided in FDA references, the two crystalline forms were given by gavage to investigate their pharmacokinetic behaviors in rats. The dosage amounts of the two forms are both 10 mg/kg (solvent is 1% carboxymethylcellulose). The rats were fasted for 12 hs before the study, food was provided 4 hs after administration, water deprivation was not required during the whole study. • Blood was collected via the fundus venous plexus 10, 30mins, 1, 2, 4, 6, 8, 10, 12 and 24 hs after administration. The collected blood was placed on ice and centrifuged for 5min at 8000 rpm, plasma was separated, and cryoperserved in a −20° C. refrigerator. LC-MS/MS was used to determine the concentration of APST in plasma. Linearity range of APST in plasma is 2-1000ng/ml, the linearity was good.

[3] = Comparison of pharmacokinetics in Beagle dogs (oral capsule of crude drug powder, LC-MS/MS plasma concentration); format: in vivo; settings: both sexes, dog, 30 mg crude drug powder capsule, single period
Protocol: 6 healthy Beagle dogs weight 6-8 kg with half males and half females were divided randomly into 2 groups, each group having 3.
According to the administration route and dosage amounts, medicine is administrated orally and the dosage is 30 mg/dog/time. After crude drug powder of two crystal forms being weighed about 30 mg respectively, capsule shell is used to be filled and 10 ml water is used accompanied with administration. The Beagle dogs were fasted for 12 hours before the study, and food is provided in 4 hours after administration. Water deprivation was not required during the whole study. Specific administration groups are designed in the table as below.
0.5ml venous blood was collected via the small saphenous veins 10, 30 min, 1, 2, 4, 6, 8, 10, 12, 24, 48 and 72 h before (0 hour) or after administration. After centrifugation for 5 minutes at 8000 rpm, blood plasma is separated out and placed in anti freezing plastic test tube for storing in refrigerator at −20 C temporarily.
Concentration of APST in blood plasma is tested by LC-MS/MS method. The linearity range of APST testing is 5 to 5000 ng/ml, and the linear is good.

[4] = Solubility of Form II and Form B in common solvents; format: physicochemical; settings: acetone, butanone, ethyl alcohol, methanol, ethyl acetate, acetonitrile, dichloromethane, tetrahydrofuran, petroleum ether, n-hexane, water
Protocol: The solubility of Form II and Form B in common solvents such as acetone, butanone, ethyl alcohol, methanol, ethyl acetate, acetonitrile, dichloromethane, tetrahydrofuran, petroleum ether, n-hexane, water was tested and compared.

[5] = Electrostatic effect under the same micronization condition; format: physicochemical
From the text: Large electrostatic effect will adversely affect the preparation processing.

[6] = Thermostability experiments: forms suspended in water and stirred at 60 and 100° C.; format: physicochemical; settings: for increased amount of related substance, N-deacetylates: stirred in water at 100° C. for 48 h; for electrostatic effect: suspended in water at 100° C., stirred 24 h, filtered and dried; for DSC / X-ray powder diffraction (change) / melting temperature (change) / X-ray powder diffraction pattern (change): suspended in water; for melting temperature (change): numbers are decreases
Protocol: Apremilast Crystalline Form II and Form B were suspended in water and stirred for 24-48 h under 60 and 100° C., respectively, then cooled, filtered, and dried, and X-ray powder diffraction patterns, DSC patterns, melting temperature and related substance were determined (see Table 4).
Apremilast Crystalline Form II and Form B were suspended in water, respectively, stirred at 60-100° C. for 48 h sampled at a certain time interval and filtered, dried to determine the change of melting temperature; sampled at 24 h, 48 h, filtered and dried to determine change of XRPD patterns, DSC patterns, melting temperature, electrostatic effects, and related substances.

[7] = Crystalline form conversion study, suspension in acetone/water at reflux; format: physicochemical; settings: suspended in acetone/water (1:3), refluxing temperature; Form B 36 h, Form D 8-10 h
Protocol: In addition, pure Form II can obtained by suspending crashed Forms A, B, C, D, E, F and/or G in acetone/water and stirring at 50° C. to refluxing temperature for 1-48 h.
Apremilast Crystalline Form B (5.0 g, particle size less than 300 mesh) was suspended in 60 ml acetone/water (1:3), heated to refluxing temperature and stirred for 36 h, then cooled while stirring, filtered, dried at 60° C. to obtain about 4.88 g of Apremilast Crystalline Form II, mp:148.3-150.3° C.
Apremilast Crystalline Form D (5.0 g, particle size less than 200mesh) was suspended in 60m1 acetone/water (1:3), heated to refluxing temperature and stirred for 8-10 h, then cooled while stirring, filtered, dried at 60° C. to obtain about 4.60 g of Apremilast Crystalline Form II, mp:148.3-150.5° C.

[8] = both sexes, SD rats, males and females together, read-out: time to peak Tmax
[9] = both sexes, SD rats, males and females together, read-out: time to peak Tmax (median)
[10] = both sexes, SD rats, males and females together
[11] = female, female rats, read-out: time to peak Tmax
[12] = female, female rats, read-out: time to peak Tmax (median)
[13] = male, male rats, read-out: time to peak Tmax
[14] = male, male rats, read-out: time to peak Tmax (median)

stability under high temperature and high humidity conditions [1]	Change of related substance/high temperature for 10 days [1]	moisture absorption/humidity 92.5% Change of related substances [1]	moisture absorption/humidity 92.5% weight gain [1] [%]	Change of related substances/light exposure for 10 days [1]	AUC(0-t) ([2]; female rats) [ng·h/mL]	Cmax ([2]; female rats) [ng/mL]	AUC(0-t) ([2]; male rats) [ng·h/mL]	Cmax ([2]; male rats) [ng/mL]	Tmax [2, 8] [h]	Tmax [2, 9] [h]	AUC(0-t) [2, 10] [ng·h/mL]	Cmax [2, 10] [ng/mL]	Tmax [2, 11] [h]	Tmax [2, 12] [h]	Tmax [2, 13] [h]	Tmax [2, 14] [h]	AUC(0-inf) [3] [ng·h/mL]	AUC(0-t) [3] [ng·h/mL]	Cmax [3] [ng/mL]	Structure (SMILES)	also measured
stable	Essentially no	essentially no	<1.0	essentially no	10600 ± 1050	906 ± 179	446 ± 81.2	108 ± 16.1	1 to 6	3	5530 ± 5610	507 ± 452	4 to 6	6	1 to 2	1	38200 ± 13000	37700 ± 22400	2050 ± 357	CCOc1cc(C(CS(C)(=O)=O)N2C(=O)c3cccc(NC(C)=O)c3C2=O)ccc1OC (single isomer, unassigned; (+)) [Form II, (+)-2-[1-(3-ethoxy-4-methoxyphenyl)-2-methylsulfonylethyl]-4-acetylaminoisoindoline-1,3-dione]	exposure of Form II relative to the exposure of Form B ([2]; female SD rats): 1.5 times; Tmax [3]: 9 ± 13 h; solubility, Form II compared with Form B [4]: essentially no difference; electrostatic effect [5]: weak or no electrostatic effect; increased amount of related substance, N-deacetylates [6]: 0.046%; electrostatic effect [6]: essentially no electrostatic effect; DSC ([6]; 60° C., 48 h): 150 °C; X-ray powder diffraction (change) ([6]; 60° C., 48 h): essentially no; melting temperature (change) ([6]; 60° C., 48 h): essentially no; DSC ([6]; 100° C., 24~48 h): 150 °C; X-ray powder diffraction pattern (change) ([6]; 100° C., 24~48 h): essentially no; melting temperature (change) ([6]; 100° C., 24~48 h): essentially no
stable	–	–	<1.0	–	7000 ± 1140	904 ± 28.5	530 ± 70	142 ± 14	1.6	2.5	3770 ± 3620	523 ± 417	2 to 6	4	1	1	38500 ± 20500	38000 ± 20500	2410 ± 377	CCOc1cc([C@@H](CS(C)(=O)=O)N2C(=O)c3cccc(NC(C)=O)c3C2=O)ccc1OC [Form B, (+)-2-[1-(3-ethoxy-4-methoxyphenyl)-2-methylsulfonylethyl]-4-acetylaminoisoindoline-1,3-dione]	conversion of crystalline form (XRPD pattern and DSC pattern) [7]: complete conversion to Form II; exposure of APST-B as percentage of the exposure of APST-II ([2]; SD rats, males and females together, gavage 10 mg/kg): about 68.07%; AUC0-t of APST-B as percentage of that of APST-II ([2]; female rats, gavage 10 mg/kg): 65.9%; AUC0-t of APST-B as percentage of that of APST-II ([2]; male rats, gavage 10 mg/kg): ~119.0%; Cmax of APST-B as percentage of that of APST-II ([2]; male rats, gavage 10 mg/kg): about 132.3%; Tmax [3]: 1.7 ± 0.6 h; solubility, Form II compared with Form B [4]: essentially no difference; electrostatic effect [5]: higher electrostatic effect; increased amount of related substance, N-deacetylates [6]: 0.059%; electrostatic effect [6]: serious electrostatic effect; DSC ([6]; 60° C., 48 h): 157 °C; X-ray powder diffraction (change) ([6]; 60° C., 48 h): weak; melting temperature (change) ([6]; 60° C., 48 h): Decreased 2-3 °C; X-ray powder diffraction pattern (change) ([6]; 100° C., 24~48 h): Weak absorption; melting temperature (change) ([6]; 100° C., 24~48 h): Decreased 3-4 °C
stable	Essentially no	essentially no	–	essentially no	–	–	–	–	–	–	–	–	–	–	–	–	–	–	–	CCOc1cc([C@@H](CS(C)(=O)=O)N2C(=O)c3cccc(NC(C)=O)c3C2=O)ccc1OC [Form I, (+)-2-[1-(3-ethoxy-4-methoxyphenyl)-2-methylsulfonylethyl]-4-acetylaminoisoindoline-1,3-dione]	–
